Test results reported in patent US5541159A, “Calcitonin derivatives” (Sandoz Ltd., priority 1988, dated 1996).

Tested on: ovulation
Experiment: inhibition of ovulation in female rats (M. Marko and E. Fluckiger)
Type: in vivo
Details: s.c.
Protocol: The LHRH antagonists of the invention, in particular the compounds of formula XI inhibit luteinizing hormone secretion, e.g. as indicated by an inhibition of ovulation in animals. This test is effected according to M. Marko and E. Fluckiger, Experientia 30, […] (1974).
Adult female rats of the Ivanovas Wistar strain (Sprague Dawley, Iva: SDIV, 200-250 g) are kept under standard conditions: 14 h light (from 0.400 to 18.00 hours); 24° C.; 55-60% rel. humidity; food and water ad libitum. Animals with regular 4-day cycles are injected on proestrus day at 13.00 h with the compound to be tested, subcutaneously or by the oral route. The next day at 9:00 a.m. the rats are sacrified and ova counted on both Fallopian tubes with the aid of a dissecting microscope. Only when no eggs are found is ovulation considered to be inhibited. The mean number of eggs per ovulating rat in each treatment groups is also determined.

[N-Ac-DPhe(Cl)^1,2, DTrp^3,DAla^10 ]-LHRH
ED50 inhibition of ovulation: 0.08 mg/kg
